Reference: patent publication US12295992B2, “Use of ALDH1A and agonist, catalyst and inhibitor thereof” (SHANGHAI INSTITUTES FOR BIOLOGICAL SCIENCES, CHINESE …, priority 2017, dated 2025)
One block for each compound: values may come before it.

Experiments:
[1] = system: mice overexpressing UBE3A; experiment: Self-grooming experiment in mice overexpressing UBE3A (AAV in PFC); type: in vivo; conditions: oral ATRA 3 mg/kg, four weeks, compared to oral solvent group
Description: To further verify whether UBE3A overactivation triggered the autism phenotype in mice due to injury in the RA production process, mice injected with UBE3A-bearing AAV virus in PFC were orally administered with oral solvents (olive oil) or ATRA (3 mg/kg), administered five consecutive days per week for a total of four weeks.

[2] = system: wild-type C57BL/6 mice; experiment: Self-grooming experiment in wild-type mice; type: in vivo; conditions: wild-type mice, oral ATRA, same administration
Description: Four-week-aged mice were given a low dose (0.1 mg/g) or a high dose (0.3 mg/g) of DSF (Sigma, dissolved in olive oil) every two days for 6 weeks. The control group was only given the solvent olive oil (Aladdin). The body weight of the mice was weighed weekly. After 6 weeks of gastric administration, the test of mouse behavior was started. The brains of the control and DSF mice were dissected and taken. After freezing with liquid nitrogen, the brain tissue was homogenized, and ATRA was quantified by the HPLC-MS/MS method as described hereinafter. The mice used in the self-grooming experiment were placed in a cage box filled with a filler having a thickness of about 0.5-1 cm for 10 minutes in advance for accommodation. Then, within 10 minutes, the time of self-grooming in mice was recorded by a double-blind experimenter through a stopwatch.

[3] = system: mice overexpressing UBE3A; experiment: Rotating rod experiment in mice overexpressing UBE3A; type: in vivo; conditions: oral ATRA 3 mg/kg
Description: Three-week-aged mice were anesthetized with intraperitoneal injection of pentobarbital (50 mg/kg) and fixed on a locator (Rivend, China). 1 μL of PBS-diluted AAV virus was injected at a rate of 0.2 μL/min on both sides of the PFC region in the mouse brain using a syringe pump (Stoelting). The position of the site injection (relative to the front fontanel): AP, +2 mm; ML, ±0.5 mm; DV, −1.3 mm. The amount of virus injected per injection site was: AAV-SynI-Flag-UBE3A and its mutant T508E, 3×10^9; and AAV-SynI-Flag-EGFP, 1.5×10^9. The needle was held in place for another 3 minutes to prevent virus reflux. The mice were placed on a 37° C. electric blanket until they recovered completely from the anesthesia. 1-2 days after surgery, mice were intraperitoneally injected with 0.5 mg/ml meloxicam (Sigma, 2 mg/kg) to help the mice to relieve pain. Four weeks after surgery, mice were tested for behavior. […]
After mice were randomized into groups, the motor coordination ability of the mice was recorded using a Rotamex rotarod instrument (Columnbus Instruments). […] The time before the test mice dropped off the rod was automatically recorded by an infrared detection system, and the results of the last test were finally compared.

[4] = system: wild-type C57BL/6 mice; experiment: Open field experiment in wild-type mice; type: in vivo; conditions: wild-type mice, oral ATRA, same administration
Description: (§1) Four-week-aged mice were given a low dose (0.1 mg/g) or a high dose (0.3 mg/g) of DSF (Sigma, dissolved in olive oil) every two days for 6 weeks. The control group was only given the solvent olive oil (Aladdin). The body weight of the mice was weighed weekly. After 6 weeks of gastric administration, the test of mouse behavior was started. The brains of the control and DSF mice were dissected and taken. After freezing with liquid nitrogen, the brain tissue was homogenized, and ATRA was quantified by the HPLC-MS/MS method as described hereinafter.
Mice were randomized into groups and placed in an open field instrument (Med Associates) for 30 minutes. The Ethovision automatic recording software (Noldus) was used to record the time spent by the mouse in the central region (⅓ to ⅔ of length on each side of the region) and to calculate the ratio of the distance walked in the central region to the total distance.

[5] = system: mice overexpressing UBE3A; experiment: Open field experiment in mice overexpressing UBE3A; type: in vivo; conditions: oral ATRA 3 mg/kg, vs solvent group
Description: Three-week-aged mice were anesthetized with intraperitoneal injection of pentobarbital (50 mg/kg) and fixed on a locator (Rivend, China). 1 μL of PBS-diluted AAV virus was injected at a rate of 0.2 μL/min on both sides of the PFC region in the mouse brain using a syringe pump (Stoelting). The position of the site injection (relative to the front fontanel): AP, +2 mm; ML, ±0.5 mm; DV, −1.3 mm. The amount of virus injected per injection site was: AAV-SynI-Flag-UBE3A and its mutant T508E, 3×10^9; and AAV-SynI-Flag-EGFP, 1.5×10^9. The needle was held in place for another 3 minutes to prevent virus reflux. The mice were placed on a 37° C. electric blanket until they recovered completely from the anesthesia. 1-2 days after surgery, mice were intraperitoneally injected with 0.5 mg/ml meloxicam (Sigma, 2 mg/kg) to help the mice to relieve pain. Four weeks after surgery, mice were tested for behavior. In the ATRA compensation experiment, one week after the injection of AAV-SynI-Flag-UBE3A virus, mice were orally administered with ATRA (Sigma, dissolved in olive oil, 3 mg/kg) or olive oil for five consecutive days. Behavioral testing was performed 4 weeks after administration.
Mice were randomized into groups and placed in an open field instrument (Med Associates) for 30 minutes. […]

[6] = system: wild-type C57BL/6 mice; experiment: Three-chamber social experiment in wild-type mice; type: in vivo; conditions: wild-type mice, oral ATRA, same administration
Description: Four-week-aged mice were given a low dose (0.1 mg/g) or a high dose (0.3 mg/g) of DSF (Sigma, dissolved in olive oil) every two days for 6 weeks. The control group was only given the solvent olive oil (Aladdin). The body weight of the mice was weighed weekly. After 6 weeks of gastric administration, the test of mouse behavior was started. The brains of the control and DSF mice were dissected and taken. After freezing with liquid nitrogen, the brain tissue was homogenized, and ATRA was quantified by the HPLC-MS/MS method as described hereinafter. A three-chamber social experiment was performed according to previously reported procedures (Sztainberg et al., 2015). Briefly, a transparent acrylic box for social experiment was divided into three chambers of uniform size with removable gates mounted on the partition board. An inverted iron mesh cup was placed in each of the left and right chambers. Two days before the experiment, C57BL/6 mice, which were from different family and whose age was matched with the test mice, were placed in two cups as strange mice for 1 hour each day for accommodation. Test mice were randomized into groups and accommodated to the test chamber for 1 hour before the test started. Each test mouse was placed in the center chamber for 10 minutes for self-exploration, and the chamber door was closed. In the first stage, a strange mouse was randomly placed in the left or right cup (avoiding positional bias), and the inanimate article was placed in the cup on the other side. […] In the second stage, the test mice were kept in the chamber of the strange mouse for 5 minutes, and then another strange mouse was placed in the cup in which the article was previously placed.

[7] = system: mice overexpressing UBE3A; experiment: Three-chamber social experiment in mice overexpressing UBE3A; type: in vivo; conditions: oral ATRA 3 mg/kg
Description: Three-week-aged mice were anesthetized with intraperitoneal injection of pentobarbital (50 mg/kg) and fixed on a locator (Rivend, China). 1 μL of PBS-diluted AAV virus was injected at a rate of 0.2 μL/min on both sides of the PFC region in the mouse brain using a syringe pump (Stoelting). The position of the site injection (relative to the front fontanel): AP, +2 mm; ML, ±0.5 mm; DV, −1.3 mm. […] The needle was held in place for another 3 minutes to prevent virus reflux. The mice were placed on a 37° C. electric blanket until they recovered completely from the anesthesia. 1-2 days after surgery, mice were intraperitoneally injected with 0.5 mg/ml meloxicam (Sigma, 2 mg/kg) to help the mice to relieve pain. Four weeks after surgery, mice were tested for behavior. […] Behavioral testing was performed 4 weeks after administration.
A three-chamber social experiment was performed according to previously reported procedures (Sztainberg et al., 2015). Briefly, a transparent acrylic box for social experiment was divided into three chambers of uniform size with removable gates mounted on the partition board. An inverted iron mesh cup was placed in each of the left and right chambers. Two days before the experiment, C57BL/6 mice, which were from different family and whose age was matched with the test mice, were placed in two cups as strange mice for 1 hour each day for accommodation. Test mice were randomized into groups and accommodated to the test chamber for 1 hour before the test started. Each test mouse was placed in the center chamber for 10 minutes for self-exploration, and the chamber door was closed. In the first stage, a strange mouse was randomly placed in the left or right cup (avoiding positional bias), and the inanimate article was placed in the cup on the other side. Each test mouse was explored for 10 minutes in the open three-chambers, and the communication time between the test mice and the strange mice or the articles was manually recorded. In the second stage, the test mice were kept in the chamber of the strange mouse for 5 minutes, and then another strange mouse was placed in the cup in which the article was previously placed. The test mice were further explored for 10 minutes, and the communication time between the test mice and the familiar animals or the new animals was manually recorded.
To further verify whether UBE3A overactivation triggered the autism phenotype in mice due to injury in the RA production process, mice injected with UBE3A-bearing AAV virus in PFC were orally administered with oral solvents (olive oil) or ATRA (3 mg/kg), administered five consecutive days per week for a total of four weeks. Then the mice were subjected to behavioral experiments (FIG. 8a).

[8] = system: wild-type C57BL/6 mice; experiment: Rotating rod experiment in wild-type mice; type: in vivo; conditions: wild-type mice, oral ATRA, same administration
Description: as §1
After mice were randomized into groups, the motor coordination ability of the mice was recorded using a Rotamex rotarod instrument (Columnbus Instruments). On the same day, the test mice were tested 3 times, each experiment was lasted 5 minutes, and the rotating rod was accelerated from 4 revolutions […]. There were at least 30 minutes between two experiments. The time before the test mice dropped off the rod was automatically recorded by an infrared detection system, and the results of the last test were finally compared.

[9] = target: T1, GST-UBE3A and ALDH1A2 proteins (Homo sapiens, UniProt O94788); experiment: GST pull-down competition of UBE3A-ALDH1A2 binding; conditions: peptide added in GST pull-down experiment
T1 construct: His6 (C); made in house; host or cells: E. coli BL21
T1 sequence (O94788 1-518): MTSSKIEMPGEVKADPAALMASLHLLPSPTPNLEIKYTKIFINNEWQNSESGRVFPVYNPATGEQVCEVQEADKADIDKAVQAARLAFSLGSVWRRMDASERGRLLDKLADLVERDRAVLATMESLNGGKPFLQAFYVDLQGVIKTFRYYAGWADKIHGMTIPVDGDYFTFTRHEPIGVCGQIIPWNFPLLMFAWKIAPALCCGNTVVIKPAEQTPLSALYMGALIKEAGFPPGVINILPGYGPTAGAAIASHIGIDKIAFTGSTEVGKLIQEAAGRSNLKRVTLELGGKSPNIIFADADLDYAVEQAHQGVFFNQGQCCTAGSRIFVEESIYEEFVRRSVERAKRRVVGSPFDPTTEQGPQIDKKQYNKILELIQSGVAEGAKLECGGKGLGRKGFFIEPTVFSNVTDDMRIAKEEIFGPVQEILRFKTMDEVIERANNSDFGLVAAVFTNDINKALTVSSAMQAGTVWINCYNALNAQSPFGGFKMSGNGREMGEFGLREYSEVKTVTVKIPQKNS
Description: GST, GST-UBE3A and the truncated GST-UBE3A proteins were induced to express in BL21 competent bacterium (NEB) and purified using glutathione agarose (GE Healthcare). ALDH1A1-His6, ALDH1A2-His6 and ALDH1A3-His6 proteins were purified using Ni-NTA agarose (Qiagen). The purified ALDH1A2-His6 and GST-UBE3A proteins were incubated in a pull-down buffer (50 mM Tris-Cl, pH 8.0, 200 mM NaCl, 1 mM EDTA, 1% NP-40, 1 mM DTT, 10 mM MgCl2) at 4° C. for 2 hours. The beads were washed 4 times with the pull-down buffer and analyzed by immunoblotting. The pull-down analysis of other proteins followed the same steps.
Since there was no known substrate for UBE3A to explain the association between the onset of ASD and UBE3A overactivation from a mechanical perspective (Glessner et al., 2009), human UBE3A protein was firstly used as a bait to screen for unknown substrate proteins by yeast two-hybrid method. […] Retinoic acid or RA, as an active metabolite of vitamin A (retinol), is required for the development and growth of higher animals including human. The synthesis of RA is accomplished in two steps, including retinol dehydrogenase (RDH10), which catalyzes retinol into retinal, and retinal dehydrogenase (ALDH1A1, ALDH1A 2, and ALDH1A 3 families which catalyze retinal into retinoic acid). Endogenous or exogenously expressed UBE3A and ALDH1A2 proteins were confirmed to form complexes in HEK-293FT cells by immunoprecipitation experiments (FIG. 2b-c). In immunofluorescence experiments, Flag-tagged and RFP-tagged UBE3A and ALDH1A2 proteins were co-localized in the cytoplasm of […] cell SH-SY5Y (FIG. 2d). The GST pull-down experiment further confirmed that the recombinant proteins UBE3A and ALDH1A2 could bind directly in vitro (FIG. 2e) and bound through the N-terminal (amino acid position of 1-280) of UBE3A (FIG. 2f). Since the ALDH1A2 protein had high sequence homology to other family members of ALDH1A1 and ALDH1A 3, it was further verified that UBE3A could bind directly to ALDH1A1 and ALDH1A3, respectively, in vitro and in vivo (FIG. 2g-j). […]

self-grooming experiment, solvent vs ATRA [2]: did not cause any differences
sport ability (rotating rod) [3]: did not affect the sport ability
open field experiment, solvent vs ATRA [4]: did not cause any differences
distance walked in open field [5]: walked more distance
time in the middle of the open field [5]: less time
three-chamber social interaction experiment, solvent vs ATRA [6]: did not cause any differences
rotating rod experiment, solvent vs ATRA [8]: did not cause any differences
Compound: CC1=C(/C=C/C(C)=C/C=C/C(C)=C/C(=O)O)C(C)(C)CCC1 [ATRA, all-trans retinoic acid]
time spent on self-grooming behavior [1]: significantly reduced
cognitive deficits in social novelty [7]: alleviated
time interacting with social animals vs non-social articles [7]: nearly twice as much time
time spent with strange mice vs familiar mice [7]: twice
social barriers ([7]; compared with solvent group): completely reversed

Compound: peptide-1: SEQ ID No: 9 ASRMKRAAAKHLIERYYHQLTEGCG, targets UBE3A-ALDH1A2 binding region (peptide-1)
blocking of binding between GST-UBE3A and ALDH1A2 proteins [9]: could block the bonding between GST-UBE3A and ALDH1A2 proteins in different extend

Compound: peptide-2: SEQ ID No: 10 NNAAAIKALELYKINAKLCDPH, targets UBE3A-ALDH1A2 binding region (peptide-2)
blocking of binding between GST-UBE3A and ALDH1A2 proteins [9]: could block the bonding between GST-UBE3A and ALDH1A2 proteins in different extend

Compound: peptide-3: SEQ ID No: 11 AEALVQSFRKVKQHTKEELKSLQAKDEDKD, targets UBE3A-ALDH1A2 binding region (peptide-3)
blocking of binding between GST-UBE3A and ALDH1A2 proteins [9]: could block the bonding between GST-UBE3A and ALDH1A2 proteins in different extend
